“Also recorded” adds a separate entry of the source.
Key:
Assay type in all cases: cell-based, human
[1] = system: peptide-pulsed A24LCL cells; test: IFN-gamma ELISPOT assay on CTLs induced with MYBL2 peptides; conditions: against peptide-pulsed target cells vs control without peptide, day 21 after 3rd stimulation
Source text: (§1) Monocyte-derived dendritic cells (DCs) were used as antigen-presenting cells (APCs) to induce cytotoxic T lymphocyte (CTL) responses against peptides presented on human leukocyte antigen (HLA). DCs were generated in vitro as described elsewhere (Nakahara S et al., Cancer Res 2003 Jul. 15, 63(14): 4112-8). Specifically, peripheral blood mononuclear cells (PBMCs) isolated from a normal volunteer (HLA-A*2402 positive) by Ficoll-Plaque (Pharmacia) solution were separated by adherence to a plastic tissue culture dish (Becton Dickinson) so as to enrich them as the monocyte fraction. The monocyte-enriched population was cultured in the presence of 1000 U/ml of granulocyte-macrophage colony-stimulating factor (GM-CSF) (R&D System) and 1000 U/ml of interleukin (IL)-4 (R&D System) in AIM-V Medium (Invitrogen) containing 2% heat-inactivated autologous serum (AS). After 7 days of culture, the cytokine-induced DCs were pulsed with 20 mcg/ml of each of the synthesized peptides in the presence of 3 mcg/ml of beta2-microglobulin for 3 hr at 37 degrees C. in AIM-V Medium. The generated cells appeared to express DC-associated molecules, such as CD80, CD83, CD86 and HLA class II, on their cell surfaces (data not shown). These peptide-pulsed DCs were then inactivated by Mitomycin C (MMC) (30 mcg/ml for 30 min) and mixed at a 1:20 ratio with autologous CD8+ T cells, obtained by positive selection with CD8 Positive Isolation Kit (Dynal). These cultures were set up in 48-well plates (Corning); each well contained 1.5×10^4 peptide-pulsed DCs, 3×10^5 CD8+ T cells and 10 ng/ml of IL-7 (R&D System) in 0.5 ml of AIM-V/2% AS medium. Three days later, these cultures were supplemented with IL-2 (CHIRON) to a final concentration of 20 IU/ml. On day 7 and 14, the T cells were further stimulated with the autologous peptide-pulsed DCs. The DCs were prepared each time by the same way described above. CTL was tested against peptide-pulsed A24LCL cells after the 3rd round of peptide stimulation on day 21 (Tanaka H et al., Br J Cancer 2001 Jan. 5, 84(1): 94-9; Umano Y et al., Br J Cancer 2001 Apr. 20, 84(8): 1052-7; Uchida N et al., Clin Cancer Res 2004 Dec. 15, 10(24): 8577-86; Suda T et al., Cancer Sci 2006 May, 97(5): 411-9; Watanabe T et al., Cancer Sci 2005 August, 96(8): 498-506).
(§2) To examine specific CTL activity, interferon (IFN)-gamma enzyme-linked immunospot (ELISPOT) assay and IFN-gamma enzyme-linked immunosorbent assay (ELISA) were performed. Specifically, peptide-pulsed A24LCL (1×10^4/well) was prepared as stimulator cells. Cultured cells in 48 wells were used as responder cells. IFN-gamma ELISPOT assay and IFN-gamma ELISA assay were performed under manufacture procedure.

[2] = system: peptide-pulsed A24LCL cells; test: IFN-gamma ELISA assay on established CTL lines; conditions: target cells pulsed with corresponding peptide vs target cells without peptide pulse
Experimental: CTLs were expanded in culture using the method similar to the one described by Riddell et al. (Walter E A et al., N Engl J Med 1995 Oct. 19, 333(16): 1038-44; Riddell S R et al., Nat Med 1996 February, 2(2): 216-23). A total of 5×10^4 CTLs were suspended in 25 ml of AIM-V/5% AS medium with 2 kinds of human B-lymphoblastoid cell lines, inactivated by MMC, in the presence of 40 ng/ml of anti-CD3 monoclonal antibody (Pharmingen). One day after initiating the cultures, 120 IU/ml of IL-2 were added to the cultures. The cultures were fed with fresh AIM-V/5% AS medium containing 30 IU/ml of IL-2 on days 5, 8 and 11 (Tanaka H et al., Br J Cancer 2001 Jan. 5, 84(1): 94-9; Umano Y et al., Br J Cancer 2001 Apr. 20, 84(8): 1052-7; Uchida N et al., Clin Cancer Res 2004 Dec. 15, 10(24): 8577-86; Suda T et al., Cancer Sci 2006 May, 97(5): 411-9; Watanabe T et al., Cancer Sci 2005 August, 96(8): 498-506).
as §2

[3] = system: CD8+ T cells stimulated with peptide-pulsed DCs (HLA-A*2402 positive); test: In vitro CTL induction and establishment of CTL lines; conditions: cells of positive wells expanded
Source text: as §1, with “CTL was tested against peptide-pulsed A24LCL cells after the 3rd round of peptide stimulation on day 21 (Tanaka H et al., Br J Cancer 2001 Jan. 5, 84(1): 94-9; Umano Y et al., Br J Cancer 2001 Apr. 20, 84(8): 1052-7; Uchida N et al., Clin Cancer Res 2004 Dec. 15, 10(24): 8577-86; Suda T et al., Cancer Sci 2006 May, 97(5): 411-9; Watanabe T et al., Cancer Sci 2005 August, 96(8): 498-506).” left out

Sequence | IFN-gamma production of peptide-stimulated CTLs (ELISPOT) ([1]; listed as MYBL2-A24-9-370) | IFN-gamma production of established CTL lines (ELISA) [2] | IFN-gamma production of established CTL lines (ELISA) ([2]; listed as MYBL2-A24-9-370) | Establishment of CTL lines [3] | IFN-gamma production of peptide-stimulated CTLs (ELISPOT) ([1]; listed as MYBL2-A24-10-197) | IFN-gamma production of established CTL lines (ELISA) ([2]; listed as MYBL2-A24-10-197) | IFN-gamma production of peptide-stimulated CTLs (ELISPOT) ([1]; listed as MYBL2-A24-9-100) | IFN-gamma production of established CTL lines (ELISA) ([2]; listed as MYBL2-A24-9-100) | IFN-gamma production of peptide-stimulated CTLs (ELISPOT) ([1]; listed as MYBL2-A24-10-48) | IFN-gamma production of established CTL lines (ELISA) ([2]; listed as MYBL2-A24-10-48)
EYRLDGHTI [SEQ ID NO: 2, 9-mer peptide derived from MYBL2, start position 370] | potent IFN-gamma production as compared to the control wells; also recorded: potent IFN-gamma production as compared with the control | potent IFN-gamma production against the target cells pulsed with corresponding peptide | potent IFN-gamma production as compared with the control | expanded and established CTL lines |  |  |  |  |  | 
KPPVYLLLEL [SEQ ID NO: 13, 10-mer peptide derived from MYBL2, start position 197] |  | potent IFN-gamma production against the target cells pulsed with corresponding peptide |  | expanded and established CTL lines | potent IFN-gamma production as compared to the control wells; also recorded: potent IFN-gamma production as compared with the control | potent IFN-gamma production as compared with the control |  |  |  | 
KYGTKQWTL [SEQ ID NO: 1, 9-mer peptide derived from MYBL2, start position 100] |  | potent IFN-gamma production against the target cells pulsed with corresponding peptide |  | expanded and established CTL lines |  |  | potent IFN-gamma production as compared to the control wells; also recorded: potent IFN-gamma production as compared with the control | potent IFN-gamma production as compared with the control |  | 
QFGQQDWKFL [SEQ ID NO: 12, 10-mer peptide derived from MYBL2, start position 48] |  |  |  |  |  |  |  |  | typical negative data of CTL response; also recorded: no specific IFN-gamma production was detected | typical negative data of CTL response; also recorded: no specific IFN-gamma production against peptide-pulsed target cells was observed
